target: T1, Caspase-1 (Homo sapiens, UniProt P29466); assay: Binding affinity to human caspase-1 assessed as apparent inhibition constant; settings: read-out: Ki(app)
T1 sequence (P29466 whole entry): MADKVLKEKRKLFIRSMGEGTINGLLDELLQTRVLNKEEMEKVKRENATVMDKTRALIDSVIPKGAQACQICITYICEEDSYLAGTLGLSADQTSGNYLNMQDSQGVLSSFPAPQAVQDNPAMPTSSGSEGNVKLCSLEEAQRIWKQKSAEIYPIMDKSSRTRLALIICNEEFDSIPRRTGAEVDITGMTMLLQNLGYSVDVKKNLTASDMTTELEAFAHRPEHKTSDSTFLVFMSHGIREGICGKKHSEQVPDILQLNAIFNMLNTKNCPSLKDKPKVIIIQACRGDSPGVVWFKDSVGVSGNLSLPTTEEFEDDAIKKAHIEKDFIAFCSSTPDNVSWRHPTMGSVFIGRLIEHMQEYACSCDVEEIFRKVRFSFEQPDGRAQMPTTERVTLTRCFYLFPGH

Row | Ki [nM] | Compound
1 | 150 | O=C[C@H](CC(=O)O)NC(=O)CCCCCNC(=O)c1ccc(Nc2cnc3ccccc3n2)cc1

target: T2, Caspase-8 (Homo sapiens, UniProt Q14790); assay: Inhibition of caspase-8 (unknown origin) by fluorescence based analysis; settings: not given
T2 sequence (Q14790 217-374 limits assumed): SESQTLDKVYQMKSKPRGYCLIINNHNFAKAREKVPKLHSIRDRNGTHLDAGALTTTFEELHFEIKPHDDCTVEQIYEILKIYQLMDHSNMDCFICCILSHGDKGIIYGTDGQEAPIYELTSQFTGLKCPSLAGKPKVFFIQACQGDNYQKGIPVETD
T2 sequence (Q14790 385-479 limits assumed): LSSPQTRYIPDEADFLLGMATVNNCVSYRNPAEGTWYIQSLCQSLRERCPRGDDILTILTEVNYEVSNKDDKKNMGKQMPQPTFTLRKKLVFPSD

Row | IC50 [nM] | Compound
2 | 0.12 | O=C1C[C@H](NC(=O)[C@@H]2CCCN3C(=O)CC[C@H](NC(=O)c4nccc5ccccc45)C(=O)N23)[C@H](O)O1

target: T2, Caspase-8; assay: Binding affinity to Caspase-8 (unknown origin) using Ac-IETD-AFC as substrate assessed as inhibition constant; settings: not given

Row | Ki [nM] | Compound
3 | 42 | CC(=O)N[C@@H](Cc1ccc(O)cc1)C(=O)N[C@H](C(=O)N[C@@H](C)C(=O)N[C@@H](CC(=O)O)C(=O)CCCCc1ccccc1)C(C)C
4 | 100 | CC(C)[C@H](NC(=O)CCc1ccccc1)C(=O)N[C@@H](C)C(=O)N[C@@H](CC(=O)O)C(=O)CCCc1ccccc1
5 | 18.5 | CC(=O)N[C@@H](Cc1ccc(O)cc1)C(=O)N[C@H](C(=O)N[C@@H](C)C(=O)N[C@@H](CC(=O)O)C(=O)CCCCCc1ccccc1)C(C)C
6 | 610 | CC(C)[C@H](NC(=O)CCc1ccccc1)C(=O)N[C@@H](C)C(=O)N[C@@H](CC(=O)O)C(=O)CCc1ccccc1

target: T1, Caspase-1; assay: Binding affinity to N-terminal His-tagged Caspase-1 (unknown origin) assessed as inhibition constant; settings: not given

Row | Ki [nM] | Compound
7 | 113 | CC(=O)N[C@H](C(=O)N[C@@H](CC(=O)O)C(=O)COC(=O)Cc1c(Cl)ccc(Cl)c1Cl)C(C)C
8 | 80 | CC(=O)N[C@H](C(=O)N[C@@H](CC(=O)O)C(=O)COC(=O)Cc1c(Cl)cccc1Cl)C(C)C

target: Interleukin-1 beta (Homo sapiens) (UniProt P01584); assay: Inhibition of human Interleukin-1beta at 30 uM relative to control; settings: not given
Sequence (P01584 117-269 limits assumed): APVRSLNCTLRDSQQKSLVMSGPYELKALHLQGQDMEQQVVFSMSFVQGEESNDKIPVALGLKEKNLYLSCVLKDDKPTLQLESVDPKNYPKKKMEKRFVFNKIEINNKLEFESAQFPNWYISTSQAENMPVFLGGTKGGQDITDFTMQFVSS

Row | inhibition [%] | Compound
9 | 87 | CCOC(=O)c1ccc(-n2sc(-c3ccccc3Cl)cc2=O)cc1
10 | 83 | O=c1cc(-c2ccccc2Cl)sn1-c1ccc(C(F)(F)F)cc1
11 | 89 | N#Cc1ccc(-n2sc(-c3ccccc3Cl)cc2=O)cc1

target: T1, Caspase-1; assay: Inhibition of N-terminal His-tagged Caspase-1 (unknown origin); settings: not given

Row | IC50 [nM] | Compound
12 | 5560 | COC(=O)CC(NC(=O)C(NC(=O)OCc1ccccc1)c1ccccc1)C(=O)COC(=O)c1ccccc1 (configuration not stated)
13 | 820 | O=C(O)CC(NC(=O)C(NC(=O)OCc1ccccc1)c1ccccc1)C(=O)COC(=O)c1ccccc1 (configuration not stated)

target: T1, Caspase-1; assay: Inhibition of Caspase-1 (unknown origin); settings: not given

Row | IC50 [nM] | Compound
14 | 2200 | CCC(C)(C)c1ccc(Oc2ccccc2S(=O)(=O)N[C@H](C=O)CC(=O)O)cc1
15 | 34400 | Cc1cccc(S(=O)(=O)N[C@H](C=O)CC(=O)O)c1-c1ccccc1
16 | 700 | CC(C)C(NC(=O)OCc1ccccc1)C(=O)N[C@@H](C)C(=O)NC(CC(=O)O)C(=O)CNS(=O)(=O)CCc1ccccc1 (some centres not stated)
17 | 20 | C[C@H](NC(=O)[C@H](CCC(=O)O)NC(=O)OCc1ccccc1)C(=O)NC(CC(=O)O)C(=O)CNS(=O)(=O)CCc1ccccc1 (some centres not stated)
18 | 4.6 | CC(C)C(NC(=O)c1ccc2ccccc2c1)C(=O)N[C@@H](C)C(=O)N[C@H](CN=[N+]=[N-])CC(=O)O (some centres not stated)
19 | 11400 | O=C[C@H](CC(=O)O)NS(=O)(=O)c1ccccc1-c1cccc2ccccc12
20 | 1000 | Cc1cc(Oc2ccccc2S(=O)(=O)N[C@H](C=O)CC(=O)O)ccc1C(C)C
21 | 1000 | CCC(C)(C)c1ccc(Oc2ccccc2S(=O)(=O)N[C@H](C=O)CC(=O)O)cc1C
22 | 40 | C[C@H](NC(=O)C(NC(=O)c1ccc2ccccc2c1)C(=O)O)C(=O)N[C@H](CN=[N+]=[N-])CC(=O)O (some centres not stated)
23 | 75 | C[C@H](NC(=O)C(NC(=O)c1cc2ccccc2[nH]1)C(=O)O)C(=O)N[C@H](CN=[N+]=[N-])CC(=O)O (some centres not stated)
24 | 7.9 | CC(C)(NC(=O)CNC(=O)c1ccc2ccccc2c1)C(=O)N[C@H](CN=[N+]=[N-])CC(=O)O

target: T1, Caspase-1; assay: Inhibition of caspase-1 (unknown origin) by fluorescence based analysis; settings: not given

Row | IC50 [nM] | Compound
25 | 1.3 | O=C1C[C@H](NC(=O)[C@@H]2CCCN3C(=O)CC[C@H](NC(=O)c4nccc5ccccc45)C(=O)N23)[C@H](O)O1

target: T1, Caspase-1; assay: Binding affinity to caspase-1 (unknown origin) assessed as inhibition constant; settings: not given

Row | Ki [nM] | Compound
26 | 4 | CC(C)C(NC(=O)OCc1ccccc1)C(=O)N[C@@H](C)C(=O)NC(CC(=O)O)C(=O)CNS(=O)(=O)CCc1ccccc1 (some centres not stated)
27 | 20 | C[C@H](NC(=O)[C@H](CCC(=O)O)NC(=O)OCc1ccccc1)C(=O)NC(CC(=O)O)C(=O)CNS(=O)(=O)CCc1ccccc1 (some centres not stated)
28 | 850 | O=C(CN1C(=O)[C@H](NC(=O)c2ccccc2)CN(C(=O)CCc2ccccc2)c2ccccc21)N[C@H]1CC(=O)OC1O (some centres not stated)

target: T1, Caspase-1; assay: Inhibition of caspase-1 (unknown origin) using Ac-Tyr-Val-Ala-Asp-AFC as fluorogenic substrate by fluorescence based analysis; settings: not given

Row | IC50 [nM] | Compound
29 | 22 | CCCCN(CC(=O)N[C@@H](CC(=O)O)C(=O)COc1ccccc1)C(=O)[C@@H](NC(=O)c1ccc2ccccc2c1)C(C)C
30 | 13 | CC(C)[C@H](NC(=O)c1ccc2ccccc2c1)C(=O)N(CCCn1ccnc1)CC(=O)N[C@@H](CC(=O)O)C(=O)COc1ccccc1
31 | 38 | CC(C)[C@H](NC(=O)c1ccc2ccccc2c1)C(=O)N1CCC[C@H]1C(=O)N[C@H](C=O)CC(=O)NS(C)(=O)=O

system: not listed separately; assay: Oral bioavailability in rat; type: ADME, organism-based; settings: in vivo

Row | bioavailability [%] | Compound
32 | 4 | O=C1C[C@H](NC(=O)[C@@H]2CCCN3C(=O)CC[C@H](NC(=O)c4nccc5ccccc45)C(=O)N23)[C@H](O)O1

target: T1, Caspase-1; assay: Inhibition of Interleukin-1beta-converting enzyme (unknown origin); settings: not given

Row | Compound | IC50 [nM]
33 | CC1=C(O)C(=O)C=C2C1=CC=C1[C@@]2(C)CC[C@@]2(C)[C@@H]3C[C@](C)(C(=O)O)CC[C@]3(C)CC[C@]12C [CELASTROL] | 40
34 | CC1=C(O)C(=O)C=C2C1=CC=C1[C@@]2(C)CC[C@@]2(C)[C@@H]3C[C@@H](C)C(=O)C[C@]3(C)CC[C@]12C [TINGENONE] | 58
35 | COC(=O)[C@]1(C)CC[C@]2(C)CC[C@]3(C)C4=CC=C5C(=CC(=O)C(O)=C5C)[C@]4(C)CC[C@@]3(C)[C@@H]2C1 [PRISTIMERIN] | 56
36 | COC(=O)[C@]1(C)CC[C@]2(C)CC[C@]3(C)C4=CCc5c(cc(OC(C)=O)c(OC(C)=O)c5C)[C@]4(C)CC[C@@]3(C)[C@@H]2C1 [PRISTIMEROL DIACETATE] | 79
37 | COC(=O)c1ccc(NC(=O)CCCCC(=O)Nc2ccc3c(c2)C(=O)C(=O)NC3=O)cc1 | 19

system: not listed separately; assay: Toxicity in Sprague-Dawley rat assessed as […] mortality at 12.5 micromol/kg; settings: in vivo, 12.5 µmol/kg

Row | Compound | mortality [%]
38 | CC(=O)C[C@@H](C(=O)CCl)N(C(=O)[C@@H](NC(=O)[C@H](Cc1ccc(O)cc1)NC(C)=O)C(C)C)[C@@H](C)C(N)=O | 33

target: Caspase-1 (Homo sapiens) (UniProt P29466); assay: Binding affinity to caspase-1 (unknown origin) assessed as inhibition constant; settings: not given

Row | Ki [nM] | Compound
39 | 900 | O=C[C@H](CC(=O)O)NC(=O)Cn1c(-c2ccccc2)ccc(NC(=O)CCc2ccccc2)c1=O
40 | 150 | O=CC(CC(=O)O)NC(=O)Cn1c(Cc2ccccc2)ccc(NC(=O)CCc2ccccc2)c1=O (single isomer, unassigned)
41 | 1 | O=C[C@H](CC(=O)O)NC(=O)[C@@H]1CCCN2C(=O)CC[C@H](NC(=O)c3ccc(OCC(=O)O)cc3)C(=O)N12
42 | 970 | CC(C(=O)NC(C=O)CC(=O)O)n1c(Cc2ccccc2)ccc(NC(=O)CCc2ccccc2)c1=O (single isomer, unassigned)
